This note sets out measurements from patent US10047151B2, “Methods for the treatment of cancer and inflammatory diseases using cereblon as a predictor” (Celgene Corporation, priority 2011, dated 2018).

Format in all cases: cell-based
For one experiment, the system named is p21^WAF-1. Nature of the experiment: p21WAF-1 mRNA and protein levels in U266B1 cells. The conditions noted are these: U266B1, control mock and negative control siRNA-transfected cells; pomalidomide 1 μM, lenalidomide 10 μM. As for the experimental part:
To further investigate the effects of CRBN on the cell cycle arrest induced by drugs we used RT-PCR and Western blot analysis to measure the levels of key cell cycle and apoptotic regulators. U266B1 cells were transfected with mock, negative control siRNA, CRBN-siRNA-7 and CRBN-siRNA-11 for 24, 48, 72 and 96 h (FIG. 3A). Cells were treated 24 h after transfection with DMSO (0.1%), pomalidomide (1 μM) and lenalidomide (10 μM) for 1, 2, 3 days and the effect on mRNA and protein levels of the cyclin-dependent kinase (CDK) inhibitor p21^WAF-1 were evaluated. It has been shown that lenalidomide- and pomalidomide-induced cell cycle arrest is dependent on up-regulation of p21^WAF-1 in […]. […] However, knockdown of CRBN prevents the induction of p21^WAF-1 indicating the successful abrogation of G1 arrest and renewal of S phase progression (FIGS. 3C & 3D).

Another experiment deals with IRF4. Nature of the experiment: IRF4 protein level in H929 cells (Western blot). The source says: In H929 cells, the cell cycle arrest in G1 phase by the drugs coincides with a reduction of tumor suppressor, pRb, phosphorylation and the oncogene and myeloma survival factor IRF4.
Background: A western blot detects proteins with antibodies after separation by electrophoresis.

The subject of the next experiment is poly-ubiquitin chains. Nature of the experiment: Global polyubiquitination by immunofluorescence in H929 cells. To be noted: 1 μM, 30 minutes. As for the experimental part:
Specific antibodies for poly-ubiquitin chains were used to study the effect of immunomodulatory drugs on global levels of ubiquitination. H929 cells were treated with lenalidomide (1 μM), pomalidomide (1 μM) or proteasome inhibitor MG132. After 30 minutes cells were process for immunofluorescence. Global levels of K63-linked polyubiquitination were quantified by Cellomics.

`Nc1cccc2c1CN(C1CCC(=O)NC1=O)C2=O` (stereo not shown) [lenalidomide, 3-(4-amino-1-oxo-1,3-dihydro-isoindol-2-yl)-piperidine-2,6-dione]: the p21 level result in the experiment on p21^WAF-1 is on record as “up-regulated”. Moreover, the “total level of protein IRF4” value in the experiment with IRF4 is listed as “decreased”. Also, in the experiment with poly-ubiquitin chains, the K-63-linked ubiquitination result was “but not K-63-linked ubiquitination” and the “total K48-linked polyubiquitination” value is “decrease”.
